# According to PubChem BioAssay AID1963845 (Molecular Pharmacology Branch, DTP, NCI, 2024):
# Tested on: 429239-143-T-J1-PDC complex spheroid viability
# Experiment: Anticancer human tumor 429239-143-T-J1-PDC patient-derived small cell lung carcinoma cell line growth inhibition [POLQ]
# Settings: for IC50: curve of first compound; for viability, T/C: stronger effect = lower value
# Summary of the method: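 Complex spheroid viability model combining PDC tumour cells with endothelial (HUVEC) and MSC stromal cells. Novobiocin, ART-558 or RP6685 were tested singly and in combination with standard and investigational anticancer drugs. Each was titrated in half-log steps from near clinical Cmax, or from 10 microM where Cmax was unknown.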
# 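Note: luminescence signal used as surrogate measure of viable cells; spheroids exposed to compounds for seven days before readout.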
# 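Throughout, for viability, T/C: 100% = DMSO vehicle control viability as luminescence relative to vehicle.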
smiles,measurement,setting,value
CC(=O)O[C@H]1C(=O)[C@@]2(C)[C@H]([C@H](OC(=O)c3ccccc3)[C@]3(O)C[C@H](OC(=O)[C@H](O)[C@@H](NC(=O)c4ccccc4)c4ccccc4)C(C)=C1C3(C)C)[C@]1(OC(C)=O)CO[C@@H]1C[C@@H]2O + Cc1cccc(N(C)C(=O)C2C(O)CCN2c2nc(C)cc(C(F)(F)F)c2C#N)c1,IC50,second compound 0.0316 µM,13.4 nM
same,IC50,second compound 0.1 µM,12.9 nM
same,IC50,second compound 0.316 µM,11.6 nM
same,IC50,second compound 1 µM,14.2 nM
same,IC50,second compound 3.16 µM,13.2 nM
same,IC50,second compound 10 µM,12.5 nM
same,"viability, T/C","second compound 0.0316 µM, first compound 0.00949 µM",63.2%
same,"viability, T/C","second compound 0.0316 µM, first compound 0.03 µM",14.9%
same,"viability, T/C","second compound 0.0316 µM, first compound 0.0949 µM",11.6%
same,"viability, T/C","second compound 0.0316 µM, first compound 0.3 µM",19.4%
same,"viability, T/C","second compound 0.0316 µM, first compound 0.949 µM",24.7%
same,"viability, T/C","second compound 0.0316 µM, first compound 3 µM",27.8%
same,"viability, T/C","second compound 0.1 µM, first compound 0.00949 µM",60.9%
same,"viability, T/C","second compound 0.1 µM, first compound 0.03 µM",15.6%
same,"viability, T/C","second compound 0.1 µM, first compound 0.0949 µM",18.6%
same,"viability, T/C","second compound 0.1 µM, first compound 0.3 µM",18.5%
same,"viability, T/C","second compound 0.1 µM, first compound 0.949 µM",23%
same,"viability, T/C","second compound 0.1 µM, first compound 3 µM",24.6%
same,"viability, T/C","second compound 0.316 µM, first compound 0.00949 µM",56.6%
same,"viability, T/C","second compound 0.316 µM, first compound 0.03 µM",17.8%
same,"viability, T/C","second compound 0.316 µM, first compound 0.0949 µM",12.7%
same,"viability, T/C","second compound 0.316 µM, first compound 0.3 µM",16.9%
same,"viability, T/C","second compound 0.316 µM, first compound 0.949 µM",18.8%
same,"viability, T/C","second compound 0.316 µM, first compound 3 µM",23.9%
same,"viability, T/C","second compound 1 µM, first compound 0.00949 µM",66.5%
same,"viability, T/C","second compound 1 µM, first compound 0.03 µM",14.6%
same,"viability, T/C","second compound 1 µM, first compound 0.0949 µM",17.8%
same,"viability, T/C","second compound 1 µM, first compound 0.3 µM",17.1%
same,"viability, T/C","second compound 1 µM, first compound 0.949 µM",22.7%
same,"viability, T/C","second compound 1 µM, first compound 3 µM",24.7%
same,"viability, T/C","second compound 3.16 µM, first compound 0.00949 µM",62.5%
same,"viability, T/C","second compound 3.16 µM, first compound 0.03 µM",17%
same,"viability, T/C","second compound 3.16 µM, first compound 0.0949 µM",14.6%
same,"viability, T/C","second compound 3.16 µM, first compound 0.3 µM",17.2%
same,"viability, T/C","second compound 3.16 µM, first compound 0.949 µM",21.7%
same,"viability, T/C","second compound 3.16 µM, first compound 3 µM",25.1%
same,"viability, T/C","second compound 10 µM, first compound 0.00949 µM",61.2%
same,"viability, T/C","second compound 10 µM, first compound 0.03 µM",12.5%
same,"viability, T/C","second compound 10 µM, first compound 0.0949 µM",17.8%
same,"viability, T/C","second compound 10 µM, first compound 0.3 µM",14.6%
same,"viability, T/C","second compound 10 µM, first compound 0.949 µM",18%
same,"viability, T/C","second compound 10 µM, first compound 3 µM",16%
COc1cc(C2c3cc4c(cc3C(OC3OC5COC(C)OC5C(O)C3O)C3COC(=O)C23)OCO4)cc(OC)c1O (centres undefined) + Cc1cccc(N(C)C(=O)C2C(O)CCN2c2nc(C)cc(C(F)(F)F)c2C#N)c1,IC50,second compound 0.0316 µM,377 nM
same,IC50,second compound 0.1 µM,366 nM
same,IC50,second compound 0.316 µM,501 nM
same,IC50,second compound 1 µM,337 nM
same,IC50,second compound 3.16 µM,226 nM
same,IC50,second compound 10 µM,246 nM
same,"viability, T/C","second compound 0.0316 µM, first compound 0.0316 µM",107%
same,"viability, T/C","second compound 0.0316 µM, first compound 0.1 µM",92.9%
same,"viability, T/C","second compound 0.0316 µM, first compound 0.316 µM",56.7%
same,"viability, T/C","second compound 0.0316 µM, first compound 1 µM",19.1%
same,"viability, T/C","second compound 0.0316 µM, first compound 3.16 µM",20.2%
same,"viability, T/C","second compound 0.0316 µM, first compound 10 µM",14.3%
same,"viability, T/C","second compound 0.1 µM, first compound 0.0316 µM",92.4%
same,"viability, T/C","second compound 0.1 µM, first compound 0.1 µM",88%
same,"viability, T/C","second compound 0.1 µM, first compound 0.316 µM",54.4%
same,"viability, T/C","second compound 0.1 µM, first compound 1 µM",19.6%
same,"viability, T/C","second compound 0.1 µM, first compound 3.16 µM",16.6%
same,"viability, T/C","second compound 0.1 µM, first compound 10 µM",14.1%
same,"viability, T/C","second compound 0.316 µM, first compound 0.0316 µM",92.3%
same,"viability, T/C","second compound 0.316 µM, first compound 0.1 µM",90.1%
same,"viability, T/C","second compound 0.316 µM, first compound 0.316 µM",69.2%
same,"viability, T/C","second compound 0.316 µM, first compound 1 µM",21.1%
same,"viability, T/C","second compound 0.316 µM, first compound 3.16 µM",17.4%
same,"viability, T/C","second compound 0.316 µM, first compound 10 µM",15.9%
same,"viability, T/C","second compound 1 µM, first compound 0.0316 µM",85.5%
same,"viability, T/C","second compound 1 µM, first compound 0.1 µM",83.3%
same,"viability, T/C","second compound 1 µM, first compound 0.316 µM",52%
same,"viability, T/C","second compound 1 µM, first compound 1 µM",17.4%
same,"viability, T/C","second compound 1 µM, first compound 3.16 µM",16.1%
same,"viability, T/C","second compound 1 µM, first compound 10 µM",15.9%
same,"viability, T/C","second compound 3.16 µM, first compound 0.0316 µM",82.8%
same,"viability, T/C","second compound 3.16 µM, first compound 0.1 µM",77.4%
same,"viability, T/C","second compound 3.16 µM, first compound 0.316 µM",38.8%
same,"viability, T/C","second compound 3.16 µM, first compound 1 µM",15.2%
same,"viability, T/C","second compound 3.16 µM, first compound 3.16 µM",19.5%
same,"viability, T/C","second compound 3.16 µM, first compound 10 µM",16.6%
same,"viability, T/C","second compound 10 µM, first compound 0.0316 µM",94.6%
same,"viability, T/C","second compound 10 µM, first compound 0.1 µM",74.8%
same,"viability, T/C","second compound 10 µM, first compound 0.316 µM",44.6%
same,"viability, T/C","second compound 10 µM, first compound 1 µM",20.7%
same,"viability, T/C","second compound 10 µM, first compound 3.16 µM",21.2%
same,"viability, T/C","second compound 10 µM, first compound 10 µM",18.2%
